According to patent US20200129528A1, “METHODS FOR TREATING BLOOD PRESSURE CONDITIONS USING AMINOSTEROL COMPOSITIONS” (Enterin, Inc., priority 2018, published 2020):
Several values for one entry are separate records, joined by “and”; a condition that tells them apart may be missing. Equal values may be shown once. Entries after “also recorded” stand apart in the source; their conditions may differ.

Tests used:
[1] = test system: patients with PD and constipation; test: Circadian rhythm of wrist skin temperature; format: in vivo, human; settings: for circadian rhythm of wrist skin temperature (IS, RA, CFI, IV): 12 evaluable patients, fixed dose versus baseline
Experimental: (6) I-Button Temperature Assessment. The 1-Button is a small, rugged self-sufficient system that measures temperature and records the results in a protected memory section. The Thermochron I-Button DS1921H (Maxim Integrated, Dallas, Tex.) was used for skin temperature measurement. I-Buttons were programmed to sample every 10 mins., and attached to a double-sided cotton sport wrist band using Velcro, with the sensor face of the I-Button placed over the inside of the wrist, on the radial artery of the dominant hand. Subjects removed and replaced the data logger when necessary (i.e., to have a bath or shower). The value of skin temperature assessment in sleep research is that the endogenous skin warming resulting from increased skin blood flow is functionally linked to sleep propensity. From the collected data, the mesor, amplitude, acrophase (time of peak temperature), Rayleight test (an index of interdaily stability), mean waveforms are calculated.);
Assessments were made at baseline and at the end of the fixed dose and washout periods. Circadian system status was evaluated by continuously monitoring wrist skin temperature (Thermochron iButton DS1921H; Maxim, Dallas) following published procedures (Sarabia et al. 2008).
Circadian rhythm of skin temperature was evaluable in 12 patients (i.e., those who had recordings that extended from baseline through washout). Circadian system functionality was evaluated by continuously monitoring wrist skin temperature using a temperature sensor (Thermochron iButton DS1921H; Maxim, Dallas, Tex.) (Sarabia et al. 2008). […]
Briefly, this analysis includes the following parameters: (i) the inter-daily stability (the constancy of 24-hour rhythmic pattern over days, IS); (ii) intra-daily variability (rhythm fragmentation, IV); (iii) average of 10-minute intervals for the 10 hours with the minimum temperature (L10); (iv) average of 10-minute intervals for the 5 hours with the maximum temperature ([…]) and the relative amplitude (RA), which was determined by the difference between M5 and L10, divided by the sum of both. […]

[2] = test system: patients with PD and constipation; test: Phase 2 trial Stage 2: bowel function with daily oral dosing escalated to a fixed dose; format: in vivo, human
Experimental: Following successful screening, all subjects underwent a 14-day run-in period where the degree of constipation was assessed through a validated daily log (Zinsmeister et al. 2013) establishing baseline CSBMs/week. Subjects with an average of <3 CSBMs/week proceeded to dosing.
In Stage 2, 34 patients were evaluated. […] This dose was then maintained (“fixed dose”) fir an additional 3-5 days.
The primary efficacy outcome variable was whether or not a subject was a “success” or “failure”. This is an endpoint based on subject diary entries for the “fixed dose” period prior to the endpoint assessment defined as average complete stool frequency increase by 1 or more over baseline, or 3 or more complete spontaneous stools/week. The subject was deemed a “success” if s/he met one or more of the criteria listed above, otherwise the subject was deemed a “failure”. The primary analysis was based on all subjects with a baseline assessment and an assessment at the end of the “fixed-dose” period and was a comparison of the proportion of successes with 0.10 (the null hypothesis corresponding to no treatment effect).
The proportion of subjects for whom the drug was a success was estimated with a binomial point estimate and corresponding 95% confidence interval. A secondary analysis compared the proportions of subjects who are deemed a success at the end of the randomized fixed-dose period between those randomized to the squalamine (ENT-01) arm and those randomized to the placebo arm. A Fisher's exact test was used to compare the proportions of subjects who were deemed a success at the end of randomization period between the two randomized arms

[3] = test system: patients with PD and constipation; test: Systolic blood pressure in Stage 2 of the clinical study; format: in vivo, human; settings: for change of blood pressure in subjects with high blood pressure / change of blood pressure in subjects with low blood pressure: Stage 2, post medication / fixed dose versus baseline
Description: Subjects in Stage 2 of the clinical study described in Example 1 had their systolic blood pressure measured at various points during the clinical study. […]

[4] = parameters: species or system dogs; settings: dog, in vivo
[5] = Stage 2, individual subjects, one line per subject

CC(C)[C@@H](CC[C@@H](C)[C@H]1CC[C@H]2[C@@H]3[C@H](O)C[C@H]4C[C@@H](NCCCNCCCCN)CC[C@]4(C)[C@H]3CC[C@]12C)OS(=O)(=O)O (single isomer, unassigned) [ENT-01, squalamine]
circadian rhythm of wrist skin temperature (IS, RA, CFI, IV) [1]: significant positive impact; also recorded: improved all markers of healthy circadian function
circadian rhythm of wrist skin temperature (IS, RA, CFI, IV) ([1]; listed as Aminosterol): improved all markers of healthy circadian function
circadian rhythm parameters during wash-out ([1]; wash-out period (IS, CFI)): persisted for several of these circadian parameters
decrease of rescue medication use, baseline to fixed dose ([2]; Stage 2, 1.8/week to 0.3): 83%
improvement of SBM, baseline to fixed dose ([2]; Stage 2, 2.6 to 4.5): 73%
Ease of passage (Ease of evacuation scale 1-7) ([2]; Stage 2, at fixed dose, mean (SD), baseline 3.2, listed as aminosterol): 3.7
BP at FD-V4 pre dose [3, 5]: 122 and 147 and 144 and 154 and 115 and 110 (2×) and 138 and 130 and 121 and 113
BP at V4 + 2 hrs post dose [3, 5]: 113 and 163 and 138 and 105 and 11 and 132 (2×) and 126 and 131 and 115
final BP- v3, mean ([3]; Stage 2, mean of series, initial mean 133.4219, p=0.011638): 126.3
change of blood pressure in subjects with high blood pressure [3]: decreased blood pressure
change of blood pressure in subjects with low blood pressure [3]: increased blood pressure
change of blood pressure in subjects with high blood pressure ([3]; listed as aminosterol): lower blood pressure
change of blood pressure in subjects with low blood pressure ([3]; listed as aminosterol): higher blood pressure
oral bioavailability [4]: limited bioavailability
